Measured values taken from PMC9898036, “VIP152 is a selective CDK9 inhibitor with pre-clinical in vitro and in vivo efficacy in chronic lymphocytic leukemia” (Leukemia, 2022).

Columns and labels:
GSK3α = GSK3α (Homo sapiens, UniProt P49840); assay: KINOMEscan: GSK3α; type: binding
Description: The structure and synthesis of VIP152 were recently described by Lücking et al.. (Fig. 1A); however, the selectivity of the molecule in cellular systems has yet to be explored. […] We also performed this experiment at 1000 nM, where CDK9 was inhibited at 99%. […] We found a strong concordance between our data and those of Lücking when comparing the most inhibited kinases. Potential off-target effects of VIP152 were next tested in vitro at a concentration of 10 µM for off-target activity against a broad range of receptors, transporters, ion channels, and enzymes (n = 138) using the Eurofins Diversity Panel.
Kinomescan Kinase Profiling Assay
Kinomescan Assay was performed at DiscoverRX and described in Fabian, et al. 2005, Nat.
Biotechnol. In brief, kinases were produced and subsequently tagged with DNA for qPCR detection.
Streptavidin-coated magnetic beads were bound to biotinylated kinase ligands to serve as a solid support.
VIP152 was dissolved in DMSO and tested across a 10 serial threefold dilution set and compared to a test compound and a DMSO control. Kinases which were inhibited by VIP152 would not be bound to the solid-support resulting in decreased substrate for the qPCR reaction. Kinome map was produced via TreeSpot Analysis from DiscoverRX. […]
NanoBRETTM Target Engagement Assay Protocol […]
HEK293 cells were grown to 70-80% confluence appropriately prior to assay and subsequently trypsinized. Lipid:DNA complexes were prepared as follows. A 10µg/mL solution of DNA in Opti-MEM without serum consisting of the following ratios of carrier DNA and DNA encoding NanoLuc fusion were prepared.
9.0µg/mL of Transfection Carrier DNA, 1.0µg/mL of NanoLuc fusion vector DNA, and 1mL of Opti-MEM without phenol red. The solution was mixed thoroughly. Next, 30µL of FuGENE HD Transfection Reagent was added into each mL of DNA mixture to form the lipid:DNA complex and mixed by inversion 10 times followed by a 20 minute incubation at room temperature. […]

Adenosine A2A = Adenosine A2A (Homo sapiens, UniProt P29274); assay: Eurofins Diversity Panel; type: binding; conditions: hum, Conc. 10 μM
Glutamate, NMDA, Glycine = Glutamate, NMDA, Glycine (Rattus norvegicus, UniProt P35439); assay: Eurofins Diversity Panel; type: binding; conditions: Conc. 10 μM
Muscarinic M2 = Muscarinic M2 (Homo sapiens, UniProt P08172); assay: Eurofins Diversity Panel; type: binding; conditions: hum, Conc. 10 μM
Muscarinic M2, sequence (P08172 whole entry): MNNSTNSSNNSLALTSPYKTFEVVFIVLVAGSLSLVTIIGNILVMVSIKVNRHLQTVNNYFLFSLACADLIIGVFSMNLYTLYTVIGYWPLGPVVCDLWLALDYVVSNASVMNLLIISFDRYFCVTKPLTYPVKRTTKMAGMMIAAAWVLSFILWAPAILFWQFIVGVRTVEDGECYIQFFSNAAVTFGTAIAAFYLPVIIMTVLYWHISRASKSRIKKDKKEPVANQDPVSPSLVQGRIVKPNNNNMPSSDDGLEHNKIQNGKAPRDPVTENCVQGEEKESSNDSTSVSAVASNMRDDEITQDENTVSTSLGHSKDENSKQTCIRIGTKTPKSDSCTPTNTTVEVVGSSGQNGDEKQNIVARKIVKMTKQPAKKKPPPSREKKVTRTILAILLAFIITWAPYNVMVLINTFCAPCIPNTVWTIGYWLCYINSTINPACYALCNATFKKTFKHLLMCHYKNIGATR

[1] = target: Transporter, Dopamine (DAT) (Homo sapiens, UniProt Q01959); assay: Eurofins Diversity Panel; type: binding; conditions: hum, Conc. 10 μM
[2] = target: RSK3(Kin.Dom.1-N-terminal) (Homo sapiens, UniProt Q15349); assay: KINOMEscan: RSK3(Kin.Dom.1-N-terminal); type: binding; conditions: 100 nM, read-out: Percent Control
RSK3(Kin.Dom.1-N-terminal), sequence (Q15349 1-388 limits assumed): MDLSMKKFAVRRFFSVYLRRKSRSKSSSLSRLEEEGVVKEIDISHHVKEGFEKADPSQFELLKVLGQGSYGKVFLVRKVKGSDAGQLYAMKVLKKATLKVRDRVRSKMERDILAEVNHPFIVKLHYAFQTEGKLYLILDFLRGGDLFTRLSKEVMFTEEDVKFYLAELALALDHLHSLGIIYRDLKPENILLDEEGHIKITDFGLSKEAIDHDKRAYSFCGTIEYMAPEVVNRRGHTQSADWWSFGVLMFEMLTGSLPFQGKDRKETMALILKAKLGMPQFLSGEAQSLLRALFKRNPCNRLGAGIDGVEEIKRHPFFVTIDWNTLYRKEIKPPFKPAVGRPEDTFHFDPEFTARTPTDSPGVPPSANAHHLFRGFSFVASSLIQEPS

SBK1 = SBK1 (Homo sapiens, UniProt Q52WX2); assay: KINOMEscan: SBK1; type: binding; conditions: 100 nM, read-out: Percent Control
SIK2 = SIK2 (Homo sapiens, UniProt Q9H0K1); assay: KINOMEscan: SIK2; type: binding; conditions: 100 nM, read-out: Percent Control
SIK2, sequence (Q9H0K1 whole entry): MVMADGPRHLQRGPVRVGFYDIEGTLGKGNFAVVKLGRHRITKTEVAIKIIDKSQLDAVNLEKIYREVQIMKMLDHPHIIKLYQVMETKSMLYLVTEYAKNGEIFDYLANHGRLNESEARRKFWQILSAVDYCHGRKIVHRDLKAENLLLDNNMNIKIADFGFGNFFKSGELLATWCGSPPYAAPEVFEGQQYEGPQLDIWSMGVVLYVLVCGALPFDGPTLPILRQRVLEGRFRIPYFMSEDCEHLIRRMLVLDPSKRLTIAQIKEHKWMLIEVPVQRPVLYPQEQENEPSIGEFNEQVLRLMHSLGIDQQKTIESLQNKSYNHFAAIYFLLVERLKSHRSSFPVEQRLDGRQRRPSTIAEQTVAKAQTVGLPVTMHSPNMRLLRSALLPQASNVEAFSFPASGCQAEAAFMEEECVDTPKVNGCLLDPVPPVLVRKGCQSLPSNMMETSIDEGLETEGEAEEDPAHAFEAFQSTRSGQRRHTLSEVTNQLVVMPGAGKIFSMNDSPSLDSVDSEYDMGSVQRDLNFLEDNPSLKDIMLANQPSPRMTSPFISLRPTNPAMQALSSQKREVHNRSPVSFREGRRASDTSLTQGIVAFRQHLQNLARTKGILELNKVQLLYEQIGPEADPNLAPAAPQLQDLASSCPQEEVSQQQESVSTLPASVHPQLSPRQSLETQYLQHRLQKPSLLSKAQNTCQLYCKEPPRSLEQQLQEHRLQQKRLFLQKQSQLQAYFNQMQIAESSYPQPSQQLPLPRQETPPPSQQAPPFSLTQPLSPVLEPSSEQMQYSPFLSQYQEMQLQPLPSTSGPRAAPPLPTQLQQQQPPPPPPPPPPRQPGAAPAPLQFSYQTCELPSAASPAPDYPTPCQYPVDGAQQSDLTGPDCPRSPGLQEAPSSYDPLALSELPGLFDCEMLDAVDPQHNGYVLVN

TAOK1 = TAOK1 (Homo sapiens, UniProt Q7L7X3); assay: KINOMEscan: TAOK1; type: binding; conditions: 100 nM, read-out: Percent Control
TESK1 = TESK1 (Homo sapiens, UniProt Q15569); assay: KINOMEscan: TESK1; type: binding; conditions: 100 nM, read-out: Percent Control
ACVRL1 = ACVRL1 (Homo sapiens, UniProt P37023); assay: KINOMEscan: ACVRL1; type: binding; conditions: 1000 nM, read-out: Percent Control
AURKC = AURKC (Homo sapiens, UniProt Q9UQB9); assay: KINOMEscan: AURKC; type: binding; conditions: 1000 nM, read-out: Percent Control
AURKC, sequence (Q9UQB9 whole entry): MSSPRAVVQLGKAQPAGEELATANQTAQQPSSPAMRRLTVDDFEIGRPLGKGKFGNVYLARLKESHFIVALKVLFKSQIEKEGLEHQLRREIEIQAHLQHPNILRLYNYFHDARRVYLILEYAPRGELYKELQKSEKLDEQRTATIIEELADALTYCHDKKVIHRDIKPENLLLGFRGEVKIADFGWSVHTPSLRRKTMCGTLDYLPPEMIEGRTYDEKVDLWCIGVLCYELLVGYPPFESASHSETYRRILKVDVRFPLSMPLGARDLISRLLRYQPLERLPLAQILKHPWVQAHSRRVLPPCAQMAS

BMPR2 = BMPR2 (Homo sapiens, UniProt Q13873); assay: KINOMEscan: BMPR2; type: binding; conditions: 1000 nM, read-out: Percent Control
CSNK1A1 = CSNK1A1 (Homo sapiens, UniProt P48729); assay: KINOMEscan: CSNK1A1; type: binding; conditions: 1000 nM, read-out: Percent Control
DDR2 = DDR2 (Homo sapiens, UniProt Q16832); assay: KINOMEscan: DDR2; type: binding; conditions: 1000 nM, read-out: Percent Control
EGFR(L747-T751del,Sins) = assay: KINOMEscan: EGFR(L747-T751del,Sins); type: binding, human; conditions: 1000 nM
EGFR(L858R,T790M) = EGFR(L858R,T790M) (Homo sapiens, UniProt P00533, L858R/T790M); assay: KINOMEscan: EGFR(L858R,T790M); type: binding; conditions: 1000 nM, read-out: Percent Control
FGFR3 = FGFR3 (Homo sapiens, UniProt P22607); assay: KINOMEscan: FGFR3; type: binding; conditions: 1000 nM, read-out: Percent Control
FLT3(ITD,D835V) = assay: KINOMEscan: FLT3(ITD,D835V); type: binding, human; conditions: 1000 nM
KIT(L576P) = KIT(L576P) (Homo sapiens, UniProt P10721, L576P); assay: KINOMEscan: KIT(L576P); type: binding; conditions: 1000 nM, read-out: Percent Control
LRRK2 = LRRK2 (Homo sapiens, UniProt Q5S007); assay: KINOMEscan: LRRK2; type: binding; conditions: 1000 nM, read-out: Percent Control
LRRK2, sequence (Q5S007 whole entry): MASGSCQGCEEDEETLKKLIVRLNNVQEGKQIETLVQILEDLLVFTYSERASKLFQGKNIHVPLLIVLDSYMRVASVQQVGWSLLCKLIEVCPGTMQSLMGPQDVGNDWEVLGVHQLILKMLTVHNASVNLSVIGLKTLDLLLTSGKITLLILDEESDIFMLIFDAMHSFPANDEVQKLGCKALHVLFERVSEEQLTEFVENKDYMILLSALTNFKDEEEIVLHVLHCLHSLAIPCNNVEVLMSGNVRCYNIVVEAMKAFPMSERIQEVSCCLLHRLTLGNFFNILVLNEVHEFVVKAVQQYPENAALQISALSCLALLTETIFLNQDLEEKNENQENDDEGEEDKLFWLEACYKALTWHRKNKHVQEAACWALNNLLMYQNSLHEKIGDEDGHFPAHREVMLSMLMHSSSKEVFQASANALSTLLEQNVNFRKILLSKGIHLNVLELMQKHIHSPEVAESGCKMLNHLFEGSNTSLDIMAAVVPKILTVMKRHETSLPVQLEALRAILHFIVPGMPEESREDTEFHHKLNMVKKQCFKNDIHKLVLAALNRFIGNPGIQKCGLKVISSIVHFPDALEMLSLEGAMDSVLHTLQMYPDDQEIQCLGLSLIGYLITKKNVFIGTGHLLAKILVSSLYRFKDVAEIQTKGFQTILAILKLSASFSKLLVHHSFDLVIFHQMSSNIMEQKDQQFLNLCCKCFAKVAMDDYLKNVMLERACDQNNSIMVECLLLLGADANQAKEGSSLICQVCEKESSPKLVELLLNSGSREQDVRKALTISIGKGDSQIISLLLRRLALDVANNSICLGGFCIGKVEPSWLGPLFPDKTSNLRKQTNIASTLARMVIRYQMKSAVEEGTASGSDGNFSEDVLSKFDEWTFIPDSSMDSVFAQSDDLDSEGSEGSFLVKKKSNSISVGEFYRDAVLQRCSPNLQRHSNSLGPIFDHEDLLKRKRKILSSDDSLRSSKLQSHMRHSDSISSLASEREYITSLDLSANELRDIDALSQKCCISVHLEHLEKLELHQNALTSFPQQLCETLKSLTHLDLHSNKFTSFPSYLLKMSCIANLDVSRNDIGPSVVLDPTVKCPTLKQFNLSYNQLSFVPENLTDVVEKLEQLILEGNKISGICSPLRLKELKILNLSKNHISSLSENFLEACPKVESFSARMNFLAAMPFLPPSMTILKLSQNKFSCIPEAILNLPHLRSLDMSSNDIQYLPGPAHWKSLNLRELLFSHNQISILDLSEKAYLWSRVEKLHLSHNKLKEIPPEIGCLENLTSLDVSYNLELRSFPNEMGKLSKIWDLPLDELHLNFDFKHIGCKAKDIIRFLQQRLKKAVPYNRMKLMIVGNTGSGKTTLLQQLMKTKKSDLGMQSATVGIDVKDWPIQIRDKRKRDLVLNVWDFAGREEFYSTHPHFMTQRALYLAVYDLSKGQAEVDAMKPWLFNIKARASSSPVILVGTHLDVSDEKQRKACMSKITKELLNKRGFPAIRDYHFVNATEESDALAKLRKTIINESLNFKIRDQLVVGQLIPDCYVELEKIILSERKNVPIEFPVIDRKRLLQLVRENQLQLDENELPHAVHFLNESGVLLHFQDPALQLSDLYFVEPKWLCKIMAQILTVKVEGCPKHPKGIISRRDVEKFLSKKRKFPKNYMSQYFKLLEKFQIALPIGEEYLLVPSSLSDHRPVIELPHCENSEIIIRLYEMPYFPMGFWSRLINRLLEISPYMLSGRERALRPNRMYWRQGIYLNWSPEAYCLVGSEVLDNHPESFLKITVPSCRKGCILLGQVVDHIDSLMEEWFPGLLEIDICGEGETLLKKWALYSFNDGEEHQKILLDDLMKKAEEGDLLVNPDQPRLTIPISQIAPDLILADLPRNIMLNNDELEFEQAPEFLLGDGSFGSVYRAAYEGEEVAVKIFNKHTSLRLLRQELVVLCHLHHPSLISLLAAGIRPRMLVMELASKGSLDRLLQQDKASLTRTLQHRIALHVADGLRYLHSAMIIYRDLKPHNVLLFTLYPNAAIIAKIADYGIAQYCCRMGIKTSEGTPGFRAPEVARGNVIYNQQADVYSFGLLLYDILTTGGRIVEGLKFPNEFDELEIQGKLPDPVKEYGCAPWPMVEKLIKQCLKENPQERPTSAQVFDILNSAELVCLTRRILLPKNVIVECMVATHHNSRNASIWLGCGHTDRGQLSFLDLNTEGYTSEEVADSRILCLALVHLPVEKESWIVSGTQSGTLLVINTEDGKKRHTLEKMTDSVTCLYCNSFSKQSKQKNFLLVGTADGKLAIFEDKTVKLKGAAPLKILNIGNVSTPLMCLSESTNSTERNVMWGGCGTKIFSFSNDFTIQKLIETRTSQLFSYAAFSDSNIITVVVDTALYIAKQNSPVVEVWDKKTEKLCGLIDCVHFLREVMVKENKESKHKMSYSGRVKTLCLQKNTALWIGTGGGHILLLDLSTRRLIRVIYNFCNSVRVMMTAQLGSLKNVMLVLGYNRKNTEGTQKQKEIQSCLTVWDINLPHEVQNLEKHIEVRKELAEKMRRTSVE

MAPKAPK2 = MAPKAPK2 (Homo sapiens, UniProt P49137); assay: KINOMEscan: MAPKAPK2; type: binding; conditions: 1000 nM, read-out: Percent Control
MARK1 = MARK1 (Homo sapiens, UniProt Q9P0L2); assay: KINOMEscan: MARK1; type: binding; conditions: 1000 nM, read-out: Percent Control
MINK = MINK (Homo sapiens, UniProt Q8N4C8); assay: KINOMEscan: MINK; type: binding; conditions: 1000 nM, read-out: Percent Control
MRCKB = MRCKB (Homo sapiens, UniProt Q9Y5S2); assay: KINOMEscan: MRCKB; type: binding; conditions: 1000 nM, read-out: Percent Control

GSK3α, sequence (P49840 whole entry): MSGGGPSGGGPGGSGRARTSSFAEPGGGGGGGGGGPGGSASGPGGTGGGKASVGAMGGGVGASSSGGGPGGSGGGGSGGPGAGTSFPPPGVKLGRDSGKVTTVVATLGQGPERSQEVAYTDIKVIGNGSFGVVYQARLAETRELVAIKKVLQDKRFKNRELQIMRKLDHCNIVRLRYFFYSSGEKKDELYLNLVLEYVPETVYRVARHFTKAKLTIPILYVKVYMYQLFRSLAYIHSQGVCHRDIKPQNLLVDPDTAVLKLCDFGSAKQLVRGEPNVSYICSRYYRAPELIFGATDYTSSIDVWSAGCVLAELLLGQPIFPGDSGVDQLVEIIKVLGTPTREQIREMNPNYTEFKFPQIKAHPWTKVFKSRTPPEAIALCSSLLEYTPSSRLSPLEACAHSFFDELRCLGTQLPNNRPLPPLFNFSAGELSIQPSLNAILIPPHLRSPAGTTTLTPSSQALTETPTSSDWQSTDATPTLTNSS

COc1cc(F)ccc1-c1cc(Nc2cc(CS(C)(=N)=O)ccn2)ncc1F (stereo not drawn) [VIP152]
inhibition at 0.1 µM (GSK3α; 100 nM, read-out: inhibition of GSK3α relative to control): 97.1% | remaining binding at 0.1 µM (GSK3α; GSK3A, 100 nM, read-out: Percent Control): 2.9% | remaining binding at 1 µM (GSK3α; GSK3A, 1000 nM, read-out: Percent Control): 4.5% | inhibition at 10 µM (Adenosine A2A): 22% | inhibition at 10 µM (Glutamate, NMDA, Glycine): 12% | inhibition at 10 µM (Muscarinic M2): -5% | inhibition at 10 µM [1]: 31% | remaining binding at 0.1 µM [2]: 100% | remaining binding at 0.1 µM (SBK1): 95% | remaining binding at 0.1 µM (SIK2): 63% | remaining binding at 0.1 µM (TAOK1): 92% | remaining binding at 0.1 µM (TESK1): 100% | remaining binding at 1 µM (ACVRL1): 38% | remaining binding at 1 µM (AURKC): 38% | remaining binding at 1 µM (BMPR2): 93% | remaining binding at 1 µM (CSNK1A1): 95% | remaining binding at 1 µM (DDR2): 27% | Percent Control (EGFR(L747-T751del,Sins)): 97% | remaining binding at 1 µM (EGFR(L858R,T790M)): 81% | remaining binding at 1 µM (FGFR3): 75% | Percent Control (FLT3(ITD,D835V)): 60% | remaining binding at 1 µM (KIT(L576P)): 72% | remaining binding at 1 µM (LRRK2): 50% | remaining binding at 1 µM (MAPKAPK2): 81% | remaining binding at 1 µM (MARK1): 89% | remaining binding at 1 µM (MINK): 29% | remaining binding at 1 µM (MRCKB): 59%
